Test results: ChEMBL document CHEMBL4507291 (2021); call rule not given here

Legend:
[1] = target: Leucine-rich repeat serine/threonine-protein kinase 2 (Homo sapiens, UniProt Q5S007); assay: Cellular assay monitoring dephosphorylation of pSer935 LRRK2
[2] = species: Rattus norvegicus; assay: Testosterone Eurofins-Panlabs radioligand binding assay; set-up: ligand concentration 1.5 nM; settings: Compound concentration 10.0 uM
[3] = target: Substance-K receptor (Homo sapiens) (UniProt P21452); assay: Inhibition of Tachykinin NK2 at 10 µM in the Eurofins-Panlabs radioligand binding assay (Eurofins_assay_255600); set-up: ligand concentration 0.5 nM; settings: Compound concentration 10.0 uM
Substance-K receptor (Homo sapiens), sequence (P21452 whole entry): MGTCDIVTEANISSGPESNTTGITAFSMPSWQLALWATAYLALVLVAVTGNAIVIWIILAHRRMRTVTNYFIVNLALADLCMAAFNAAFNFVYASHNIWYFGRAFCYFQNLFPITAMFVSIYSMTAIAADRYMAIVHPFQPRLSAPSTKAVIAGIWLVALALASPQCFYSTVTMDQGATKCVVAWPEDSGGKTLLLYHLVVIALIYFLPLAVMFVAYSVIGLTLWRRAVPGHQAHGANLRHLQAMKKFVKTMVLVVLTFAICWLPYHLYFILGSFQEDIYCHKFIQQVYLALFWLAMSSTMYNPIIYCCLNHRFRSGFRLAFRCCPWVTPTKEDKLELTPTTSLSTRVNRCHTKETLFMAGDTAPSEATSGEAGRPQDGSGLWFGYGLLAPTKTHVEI

[4] = target: Adenosine Transporter (Cavia porcellus) (UniProt H0V4R7+H0UUG1+H0V3Z5); assay: (§1) Inhibition of Transporter, Adenosine at compound concentration of 10.0 uM in the Eurofins-Panlabs radioligand binding assay (Eurofins_assay_202000); assay type: protein assay; set-up: ligand concentration 0.5 nM, non-specific ligand with concentration 5 uM Nitrobenzylthioinosine, incubation time 30 min, incubation temperature 25 C
[5] = target: Adenosine Transporter (Cavia porcellus, UniProt H0V4R7+H0UUG1+H0V3Z5); assay: as §1; assay type: protein assay; set-up: ligand concentration 0.5 nM, non-specific ligand with concentration 5 uM Nitrobenzylthioinosine, incubation time 30 min, incubation temperature 25 C
[6] = target: RAC-gamma serine/threonine-protein kinase (Homo sapiens) (UniProt Q9Y243); assay: AKT3 (PKB gamma) Kinase screen; settings: Compound concentration 1.0 uM
[7] = target: Tyrosine-protein kinase BTK (Homo sapiens) (UniProt Q06187); assay: BTK Kinase screen; settings: Compound concentration 1.0 uM
[8] = target: Calcium/calmodulin-dependent protein kinase type II subunit beta (Homo sapiens) (UniProt Q13554); assay: CAMK2B (CaMKII beta) Kinase screen; settings: Compound concentration 1.0 uM
Calcium/calmodulin-dependent protein kinase type II subunit beta (Homo sapiens), sequence (Q13554 whole entry): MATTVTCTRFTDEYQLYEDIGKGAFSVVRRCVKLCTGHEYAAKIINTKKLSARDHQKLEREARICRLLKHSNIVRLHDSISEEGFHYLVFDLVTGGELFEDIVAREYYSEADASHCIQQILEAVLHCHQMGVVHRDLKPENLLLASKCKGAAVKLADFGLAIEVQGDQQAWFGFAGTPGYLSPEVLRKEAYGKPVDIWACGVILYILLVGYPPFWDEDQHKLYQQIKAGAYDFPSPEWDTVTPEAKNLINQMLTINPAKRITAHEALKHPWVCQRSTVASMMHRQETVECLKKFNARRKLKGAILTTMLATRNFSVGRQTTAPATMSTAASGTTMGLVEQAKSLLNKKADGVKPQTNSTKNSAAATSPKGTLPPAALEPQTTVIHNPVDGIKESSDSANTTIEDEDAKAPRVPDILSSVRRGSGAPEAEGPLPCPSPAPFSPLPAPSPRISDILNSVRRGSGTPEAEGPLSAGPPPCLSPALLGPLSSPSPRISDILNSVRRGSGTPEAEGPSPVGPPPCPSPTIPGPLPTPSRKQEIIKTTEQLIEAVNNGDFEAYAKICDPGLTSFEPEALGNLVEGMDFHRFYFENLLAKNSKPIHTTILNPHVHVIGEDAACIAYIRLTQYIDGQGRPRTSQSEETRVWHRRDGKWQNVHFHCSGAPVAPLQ

[9] = target: Cyclin-dependent kinase 5/CDK5 activator 1 (Homo sapiens) (UniProt Q00535+Q15078); assay: CDK5/p35 Kinase screen; assay type: protein-complex assay; settings: Compound concentration 1.0 uM
[10] = target: Serine/threonine-protein kinase Chk2 (Homo sapiens) (UniProt O96017); assay: CHEK2 (CHK2) Kinase screen; settings: Compound concentration 1.0 uM
Serine/threonine-protein kinase Chk2 (Homo sapiens), sequence (O96017 whole entry): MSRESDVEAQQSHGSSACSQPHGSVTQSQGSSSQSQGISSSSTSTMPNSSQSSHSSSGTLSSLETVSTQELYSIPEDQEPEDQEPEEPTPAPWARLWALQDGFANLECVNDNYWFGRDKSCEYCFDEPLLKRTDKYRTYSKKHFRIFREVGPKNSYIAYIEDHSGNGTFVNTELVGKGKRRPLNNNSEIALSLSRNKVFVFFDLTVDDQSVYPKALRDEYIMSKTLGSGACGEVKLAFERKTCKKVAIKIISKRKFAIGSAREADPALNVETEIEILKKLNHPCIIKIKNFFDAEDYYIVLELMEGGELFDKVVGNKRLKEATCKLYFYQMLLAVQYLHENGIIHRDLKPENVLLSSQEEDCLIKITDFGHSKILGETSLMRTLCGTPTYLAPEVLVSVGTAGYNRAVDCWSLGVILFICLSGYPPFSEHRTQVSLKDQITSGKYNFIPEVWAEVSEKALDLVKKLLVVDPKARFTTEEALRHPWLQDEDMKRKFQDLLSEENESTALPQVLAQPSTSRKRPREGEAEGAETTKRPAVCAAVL

[11] = system: Epidermal growth factor receptor (Homo sapiens), P00533 [L858R]; assay: EGFR (ErbB1) L858R Kinase screen; settings: Compound concentration 1.0 uM
[12] = target: Tyrosine-protein kinase Fes/Fps (Homo sapiens) (UniProt P07332); assay: FES (FPS) Kinase screen; settings: Compound concentration 1.0 uM
Tyrosine-protein kinase Fes/Fps (Homo sapiens), sequence (P07332 whole entry): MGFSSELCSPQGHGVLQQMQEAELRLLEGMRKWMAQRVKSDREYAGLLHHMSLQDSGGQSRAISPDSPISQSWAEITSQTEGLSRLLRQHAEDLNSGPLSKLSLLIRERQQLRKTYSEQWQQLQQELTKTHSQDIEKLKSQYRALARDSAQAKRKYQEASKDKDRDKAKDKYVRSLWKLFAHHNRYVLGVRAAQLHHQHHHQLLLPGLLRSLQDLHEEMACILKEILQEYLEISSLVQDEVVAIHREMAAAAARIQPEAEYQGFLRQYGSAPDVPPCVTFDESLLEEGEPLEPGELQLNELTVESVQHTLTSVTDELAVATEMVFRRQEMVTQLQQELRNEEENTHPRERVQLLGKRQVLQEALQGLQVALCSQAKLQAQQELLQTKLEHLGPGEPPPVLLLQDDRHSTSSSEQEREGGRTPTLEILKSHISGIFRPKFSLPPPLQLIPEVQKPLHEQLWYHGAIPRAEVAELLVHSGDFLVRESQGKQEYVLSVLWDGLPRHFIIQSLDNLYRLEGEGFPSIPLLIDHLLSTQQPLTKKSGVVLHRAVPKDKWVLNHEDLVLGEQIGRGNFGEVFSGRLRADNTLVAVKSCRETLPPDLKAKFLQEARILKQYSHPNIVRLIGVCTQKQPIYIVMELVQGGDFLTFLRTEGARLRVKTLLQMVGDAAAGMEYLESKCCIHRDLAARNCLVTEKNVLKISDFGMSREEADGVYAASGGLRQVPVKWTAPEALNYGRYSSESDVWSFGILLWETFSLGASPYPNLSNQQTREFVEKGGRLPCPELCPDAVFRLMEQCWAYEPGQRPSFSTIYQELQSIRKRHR

[13] = system: Fibroblast growth factor receptor 3 (Homo sapiens), P22607 [K650E]; assay: FGFR3 K650E Kinase screen; settings: Compound concentration 1.0 uM
[14] = target: Receptor-type tyrosine-protein kinase FLT3 (Homo sapiens) (UniProt P36888); assay: FLT3 Kinase screen; settings: Compound concentration 1.0 uM
[15] = target: Tyrosine-protein kinase FRK (Homo sapiens) (UniProt P42685); assay: FRK (PTK5) Kinase screen; settings: Compound concentration 1.0 uM
[16] = target: G protein-coupled receptor kinase 5 (Homo sapiens) (UniProt P34947); assay: GRK5 Kinase screen; settings: Compound concentration 1.0 uM
G protein-coupled receptor kinase 5 (Homo sapiens), sequence (P34947 whole entry, looked up): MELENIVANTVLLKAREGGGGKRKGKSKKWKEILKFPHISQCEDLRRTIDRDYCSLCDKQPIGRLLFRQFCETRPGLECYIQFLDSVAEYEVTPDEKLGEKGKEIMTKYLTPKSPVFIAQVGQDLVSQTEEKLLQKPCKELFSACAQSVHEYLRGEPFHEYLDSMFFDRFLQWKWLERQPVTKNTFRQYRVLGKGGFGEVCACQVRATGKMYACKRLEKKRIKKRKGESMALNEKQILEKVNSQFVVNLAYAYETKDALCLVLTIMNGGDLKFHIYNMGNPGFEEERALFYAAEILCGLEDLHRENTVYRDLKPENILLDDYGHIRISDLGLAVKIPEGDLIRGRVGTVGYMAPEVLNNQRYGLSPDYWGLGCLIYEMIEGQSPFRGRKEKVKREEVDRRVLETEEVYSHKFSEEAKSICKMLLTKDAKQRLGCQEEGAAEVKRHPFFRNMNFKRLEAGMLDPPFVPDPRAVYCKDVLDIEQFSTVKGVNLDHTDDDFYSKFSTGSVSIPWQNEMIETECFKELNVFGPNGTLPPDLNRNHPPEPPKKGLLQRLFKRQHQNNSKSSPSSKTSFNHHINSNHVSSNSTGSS

[17] = target: Homeodomain-interacting protein kinase 2 (Homo sapiens) (UniProt Q9H2X6); assay: HIPK2 Kinase screen; settings: Compound concentration 1.0 uM
[18] = target: Tyrosine-protein kinase JAK2 (Homo sapiens) (UniProt O60674); assay: JAK2 JH1 JH2 Kinase screen; settings: Compound concentration 1.0 uM
[19] = system: Tyrosine-protein kinase JAK2 (Homo sapiens), O60674 [V617F]; assay: JAK2 JH1 JH2 V617F Kinase screen; settings: Compound concentration 1.0 uM
[20] = target: Tyrosine-protein kinase Lyn (Homo sapiens) (UniProt P07948); assay: LYN B Kinase screen; settings: Compound concentration 1.0 uM
[21] = target: Mitogen-activated protein kinase 14 (Homo sapiens) (UniProt Q16539); assay: MAPK14 (p38 alpha) Direct Kinase screen; settings: Compound concentration 1.0 uM
[22] = target: Mitogen-activated protein kinase 8 (Homo sapiens) (UniProt P45983); assay: MAPK8 (JNK1) Kinase screen; settings: Compound concentration 1.0 uM
Mitogen-activated protein kinase 8 (Homo sapiens), sequence (P45983 whole entry): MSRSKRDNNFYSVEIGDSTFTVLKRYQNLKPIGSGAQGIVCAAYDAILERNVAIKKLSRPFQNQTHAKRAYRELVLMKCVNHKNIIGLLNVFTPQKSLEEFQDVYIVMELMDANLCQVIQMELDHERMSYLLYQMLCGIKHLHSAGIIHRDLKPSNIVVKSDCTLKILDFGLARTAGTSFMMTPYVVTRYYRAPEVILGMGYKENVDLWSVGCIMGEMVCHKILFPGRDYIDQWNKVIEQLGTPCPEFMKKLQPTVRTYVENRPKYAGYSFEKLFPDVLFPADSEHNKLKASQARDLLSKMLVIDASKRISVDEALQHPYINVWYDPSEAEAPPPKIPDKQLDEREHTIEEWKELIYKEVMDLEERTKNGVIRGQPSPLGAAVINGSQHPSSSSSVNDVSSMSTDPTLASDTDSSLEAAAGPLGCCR

[23] = target: T1, NUAK family SNF1-like kinase 1 (Homo sapiens) (UniProt O60285); assay: NUAK1 (ARK5) Kinase screen; settings: Compound concentration 1.0 uM
T1 sequence (whole entry): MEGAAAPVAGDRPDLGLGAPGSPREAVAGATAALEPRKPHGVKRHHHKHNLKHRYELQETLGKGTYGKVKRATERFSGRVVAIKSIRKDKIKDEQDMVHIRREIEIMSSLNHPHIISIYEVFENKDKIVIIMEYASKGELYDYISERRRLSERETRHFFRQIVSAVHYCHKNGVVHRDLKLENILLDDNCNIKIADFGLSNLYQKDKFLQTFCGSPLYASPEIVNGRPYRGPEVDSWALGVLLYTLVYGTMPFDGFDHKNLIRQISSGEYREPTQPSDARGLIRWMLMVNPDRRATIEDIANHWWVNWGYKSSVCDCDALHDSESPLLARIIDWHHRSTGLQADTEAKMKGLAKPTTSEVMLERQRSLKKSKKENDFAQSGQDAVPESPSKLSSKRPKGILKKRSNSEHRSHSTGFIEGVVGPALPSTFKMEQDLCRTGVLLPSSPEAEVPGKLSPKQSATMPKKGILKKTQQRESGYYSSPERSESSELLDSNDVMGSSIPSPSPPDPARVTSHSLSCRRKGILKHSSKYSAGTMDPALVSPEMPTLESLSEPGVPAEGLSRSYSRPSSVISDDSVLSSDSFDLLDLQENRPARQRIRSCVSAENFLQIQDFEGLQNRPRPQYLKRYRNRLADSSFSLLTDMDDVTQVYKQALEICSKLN

[24] = system: Platelet-derived growth factor receptor alpha (Homo sapiens), P16234 [V561D]; assay: PDGFRA V561D Kinase screen; settings: Compound concentration 1.0 uM
[25] = target: Protein kinase C beta type (Homo sapiens) (UniProt P05771); assay: PRKCB1 (PKC beta I) Kinase screen; settings: Compound concentration 1.0 uM
Protein kinase C beta type (Homo sapiens), sequence (P05771 2-671 limits assumed): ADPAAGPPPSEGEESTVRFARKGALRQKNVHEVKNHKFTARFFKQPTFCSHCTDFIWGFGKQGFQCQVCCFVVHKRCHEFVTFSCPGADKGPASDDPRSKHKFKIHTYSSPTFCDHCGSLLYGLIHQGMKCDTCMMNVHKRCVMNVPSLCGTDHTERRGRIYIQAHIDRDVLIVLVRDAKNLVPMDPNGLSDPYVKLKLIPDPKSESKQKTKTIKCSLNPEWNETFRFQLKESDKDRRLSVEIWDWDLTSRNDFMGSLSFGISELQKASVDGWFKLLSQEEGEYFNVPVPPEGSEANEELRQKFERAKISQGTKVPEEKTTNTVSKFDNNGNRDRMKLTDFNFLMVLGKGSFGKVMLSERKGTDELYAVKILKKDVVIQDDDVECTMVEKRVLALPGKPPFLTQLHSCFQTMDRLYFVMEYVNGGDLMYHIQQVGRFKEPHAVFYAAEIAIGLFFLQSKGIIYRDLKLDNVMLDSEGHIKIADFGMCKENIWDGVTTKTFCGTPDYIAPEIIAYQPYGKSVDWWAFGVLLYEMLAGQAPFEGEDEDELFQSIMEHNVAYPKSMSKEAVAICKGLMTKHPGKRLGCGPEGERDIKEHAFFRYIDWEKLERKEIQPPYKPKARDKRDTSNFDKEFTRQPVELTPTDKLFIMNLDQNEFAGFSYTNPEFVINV

[26] = target: Serine/threonine-protein kinase 24 (Homo sapiens) (UniProt Q9Y6E0); assay: STK24 (MST3) Kinase screen; settings: Compound concentration 1.0 uM
Serine/threonine-protein kinase 24 (Homo sapiens), sequence (Q9Y6E0 whole entry, looked up): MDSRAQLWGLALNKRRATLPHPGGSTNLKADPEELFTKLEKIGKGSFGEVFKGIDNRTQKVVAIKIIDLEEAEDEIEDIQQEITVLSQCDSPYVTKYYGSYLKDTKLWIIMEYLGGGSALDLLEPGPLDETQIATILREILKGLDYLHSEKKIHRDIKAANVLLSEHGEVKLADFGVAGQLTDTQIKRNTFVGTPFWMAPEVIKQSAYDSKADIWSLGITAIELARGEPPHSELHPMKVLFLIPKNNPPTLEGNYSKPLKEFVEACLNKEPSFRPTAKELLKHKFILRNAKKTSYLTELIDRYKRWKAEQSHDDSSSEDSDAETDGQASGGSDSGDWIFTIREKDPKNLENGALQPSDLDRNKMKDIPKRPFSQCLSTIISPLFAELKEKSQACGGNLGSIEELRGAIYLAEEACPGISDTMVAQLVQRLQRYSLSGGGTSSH

[27] = target: Caspase-9 (Homo sapiens) (UniProt P55211); assay: Peptidase, CASP9 (Caspase 9) Eurofins-Panlabs enzyme assay; set-up: substrate with concentration; settings: Compound concentration 10.0 uM
Caspase-9 (Homo sapiens), sequence (P55211 1-315 limits assumed): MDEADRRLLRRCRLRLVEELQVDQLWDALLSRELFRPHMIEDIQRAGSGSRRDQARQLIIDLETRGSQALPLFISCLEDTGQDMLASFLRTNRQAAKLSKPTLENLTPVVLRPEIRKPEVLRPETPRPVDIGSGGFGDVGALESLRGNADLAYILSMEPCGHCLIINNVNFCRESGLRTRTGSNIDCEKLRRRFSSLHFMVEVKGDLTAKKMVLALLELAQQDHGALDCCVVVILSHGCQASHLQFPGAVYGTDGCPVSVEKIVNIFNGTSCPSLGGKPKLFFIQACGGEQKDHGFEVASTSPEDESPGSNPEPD
Caspase-9 (Homo sapiens), sequence (P55211 331-416 limits assumed): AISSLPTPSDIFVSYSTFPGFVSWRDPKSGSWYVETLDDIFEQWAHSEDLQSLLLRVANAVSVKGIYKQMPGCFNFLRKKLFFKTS

[28] = target: Nociceptin receptor (Homo sapiens) (UniProt P41146); assay: Orphanin ORL1 Eurofins-Panlabs radioligand binding assay; settings: Compound concentration 10.0 uM
[29] = target: Peroxisome proliferator-activated receptor alpha (Homo sapiens) (UniProt Q07869); assay: PPARalpha Eurofins-Panlabs radioligand binding assay; settings: Compound concentration 10.0 uM
[30] = target: Adenosine receptor A1 (Homo sapiens) (UniProt P30542); settings: Compound concentration 10.0 uM
[31] = target: Adenosine receptor A2a (Homo sapiens) (UniProt P29274); settings: Compound concentration 10.0 uM
[32] = target: Sodium-dependent dopamine transporter (Homo sapiens) (UniProt Q01959); settings: Compound concentration 10.0 uM

`C[C@@H]1CN(c2cc(-c3nn(C)c4ccc(OC5(C)CC5)cc34)ncn2)C[C@H](C)O1` [MLi-2-NC] was tested, and the IC50 [1] was 5.44 µM (not active).

In the case of `C[C@@H]1CN(c2cc(-c3n[nH]c4ccc(OC5(C)CC5)cc34)ncn2)C[C@H](C)O1` [MLi-2], the inhibition [2] is reported as 9%, the inhibition [3] is reported as 27% and the inhibition ([4]; Compound concentration 0.01 uM) is reported as 2%. It also gave an inhibition ([4]; Compound concentration 0.1 uM) of -1%, an inhibition ([4]; Compound concentration 1.0 uM) of 11% and an inhibition ([4]; Compound concentration 10.0 uM) of 51%. The IC50 [5] was 9.7 µM, the Ki [5] was 3.32 µM and the inhibition [6] was 7.75%. For the same molecule, the inhibition [7] was 4.5%, the inhibition [8] was 12.6% and the inhibition [9] was -0.531%. It also gave an inhibition [10] of 14.9%, an inhibition [11] of -0.455% and an inhibition [12] of 6.03%. The inhibition [13] was 3.43%, the inhibition [14] was 2.53% and the inhibition [15] was 7.13%. It also gave an inhibition [16] of 0.0771%, an inhibition [17] of 5.33% and an inhibition [18] of -4.32%. For the same molecule, the inhibition [19] was -7.77%, the inhibition [20] was 3.94% and the inhibition [21] was 8.11%. For the same molecule, the inhibition [22] was -0.139%, the inhibition [23] was 14.5% and the inhibition [24] was 8.06%. For the same molecule, the inhibition [25] was -7.69%, the inhibition [26] was 7.34% and the inhibition [27] was 5%. It also gave an inhibition [28] of 7%, an inhibition [29] of 10% and an inhibition [30] of 29%. For the same molecule, the inhibition [31] was 1% and the inhibition [32] was 16%.
